According to ChEMBL document CHEMBL5608235, “Tricyclic Benzo[1,3]oxazinyloxazolidinones as Potent Antibacterial Agents against Drug-Resistant Pathogens” (J Med Chem, 2024):
≈ marks a conversion by molar mass, not a printed value.

Legend:
[1] = AUC (0 to infinity) in BALB/c mouse at 10 mg/kg,po administration measured upto 24 hrs by LC-MS/MS analysis; type: ADME, organism-based; conditions: in vivo, po, 10 mg/kg, 24 h
[2] = Tmax in BALB/c mouse at 10 mg/kg,po administration measured upto 24 hrs by LC-MS/MS analysis; type: ADME, organism-based; conditions: in vivo
[3] = Plasma protein binding in BALB/c mouse at 1 mg/kg,iv administration measured upto 24 hrs by LC-MS/MS analysis; type: ADME, organism-based; conditions: read-out: PPB (converted)
[4] = Metabolic stability in human liver microsomes assessed as compound remaining at 10 uM incubated for 60 mins in absence of NADPH by LC-MS/MS analysis; type: ADME, Microsome; conditions: read-out: Stability
[5] = MRT (0 to infinity) in BALB/c mouse at 1 mg/kg,iv administration measured upto 24 hrs by LC-MS/MS analysis; type: ADME, organism-based; conditions: in vivo
[6] = Cytotoxicity against African green monkey Vero cells incubated for 48 hrs by MTT assay; type: toxicity, cell-based, Chlorocebus sabaeus
[7] = Clearance in BALB/c mouse at 1 mg/kg,iv administration measured upto 24 hrs by LC-MS/MS analysis; type: ADME, organism-based; conditions: in vivo
Staphylococcus aureus [8] = assay: Antibacterial activity against Staphylococcus aureus ATCC25923 assessed as inhibition of bacterial growth incubated for 18 hrs by microdilution broth assay; type: functional
[9] = AUC (0 to t) in BALB/c mouse at 10 mg/kg,po administration measured upto 24 hrs by LC-MS/MS analysis; type: ADME, organism-based; conditions: in vivo
[10] = Metabolic stability in human liver microsomes assessed as substrate remaining at 10 uM incubated for 60 mins in presence of NADPH by LC-MS/MS analysis; type: ADME, Microsome; conditions: read-out: Stability
[11] = system: Staphylococcus epidermidis; assay: Antibacterial activity against Staphylococcus epidermidis ATCC12228 assessed as inhibition of bacterial growth incubated for 18 hrs by microdilution broth assay; type: functional
[12] = AUC (0 to infinity) in BALB/c mouse at 1 mg/kg,iv administration measured upto 24 hrs by LC-MS/MS analysis; type: ADME, organism-based; conditions: in vivo, iv, 1 mg/kg, 24 h
[13] = MRT (0 to infinity) in BALB/c mouse at 10 mg/kg,po administration measured upto 24 hrs by LC-MS/MS analysis; type: ADME, organism-based; conditions: in vivo
[14] = Metabolic stability in ICR mouse liver microsomes assessed as compound remaining at 10 uM incubated for 60 mins in absence of NADPH by LC-MS/MS analysis; type: ADME, Microsome; conditions: read-out: Stability
[15] = Drug concentration in BALB/c mouse plasma at 10 mg/kg,po administration measured within 15 mins by LC-MS/MS analysis; type: ADME, organism-based
Staphylococcus aureus [16] = assay: Antibacterial activity against methicillin resistant Staphylococcus aureus clinical isolate 20-2 assessed as inhibition of bacterial growth incubated for 7 days by alamar blue assay; type: functional; conditions: clinical isolate 20-2, 168 h, time 7 day
[17] = Volume of distribution in BALB/c mouse at 1 mg/kg,iv administration measured upto 24 hrs by LC-MS/MS analysis; type: ADME, organism-based; conditions: in vivo
Enterococcus faecalis [18] = assay: Antibacterial activity against Linezolid resistant Enterococcus faecalis clinical isolate 20-2 assessed as inhibition of bacterial growth incubated for 7 days by alamar blue assay; type: functional; conditions: clinical isolate 20-2, 168 h, time 7 day
Staphylococcus aureus [19] = assay: Antibacterial activity against Linezolid resistant Staphylococcus aureus clinical isolate 20-2 assessed as inhibition of bacterial growth incubated for 7 days by alamar blue assay; type: functional; conditions: clinical isolate 20-2, 168 h, time 7 day
Staphylococcus aureus [20] = assay: Antibacterial activity against vancomycin intermediate Staphylococcus aureus ATCC700699 assessed as inhibition of bacterial growth incubated for 7 days by alamar blue assay; type: functional; conditions: ATCC700699, 168 h, time 7 day
[21] = MRT (0 to t) in BALB/c mouse at 1 mg/kg,iv administration measured upto 24 hrs by LC-MS/MS analysis; type: ADME, organism-based; conditions: in vivo
Bacillus subtilis = assay: Antibacterial activity against Bacillus subtilis ATCC6633 assessed as inhibition of bacterial growth incubated for 18 hrs by microdilution broth assay; type: functional
Enterococcus faecalis [22] = assay: Antibacterial activity against Enterococcus faecalis ATCC29212 assessed as inhibition of bacterial growth incubated for 18 hrs by microdilution broth assay; type: functional
[23] = system: Staphylococcus epidermidis; assay: Antibacterial activity against methicillin resistant Staphylococcus epidermidis clinical isolate 20-1 assessed as inhibition of bacterial growth incubated for 7 days by alamar blue assay; type: functional; conditions: clinical isolate 20-1, 168 h, time 7 day
[24] = Free AUC in BALB/c mouse at 10 mg/kg,po administration measured upto 24 hrs by LC-MS/MS analysis; type: ADME, organism-based; conditions: in vivo
[25] = Terminal half life in BALB/c mouse at 1 mg/kg,iv administration measured upto 24 hrs by LC-MS/MS analysis; type: ADME, organism-based; conditions: in vivo, read-out: beta t1/2 (converted)
[26] = AUC (0 to t) in BALB/c mouse at 1 mg/kg,iv administration measured upto 24 hrs by LC-MS/MS analysis; type: ADME, organism-based; conditions: in vivo
[27] = Terminal half life in BALB/c mouse at 10 mg/kg,po administration measured upto 24 hrs by LC-MS/MS analysis; type: ADME, organism-based; conditions: in vivo, read-out: beta t1/2 (converted)
[28] = MRT (0 to t) in BALB/c mouse at 10 mg/kg,po administration measured upto 24 hrs by LC-MS/MS analysis; type: ADME, organism-based; conditions: in vivo
Staphylococcus aureus [29] = assay: Antibacterial activity against Linezolid resistant Staphylococcus aureus clinical isolate 20-1 assessed as inhibition of bacterial growth incubated for 7 days by alamar blue assay; type: functional; conditions: clinical isolate 20-1, 168 h, time 7 day
[30] = Metabolic stability in ICR mouse liver microsomes assessed as substrate remaining at 10 uM incubated for 60 mins in presence of NADPH by LC-MS/MS analysis; type: ADME, Microsome; conditions: read-out: Stability
[31] = Cmax in BALB/c mouse at 10 mg/kg,po administration measured upto 24 hrs by LC-MS/MS analysis; type: ADME, organism-based; conditions: in vivo
[32] = system: Staphylococcus epidermidis; assay: Antibacterial activity against methicillin resistant Staphylococcus epidermidis clinical isolate 20-2 assessed as inhibition of bacterial growth incubated for 7 days by alamar blue assay; type: functional; conditions: clinical isolate 20-2, 168 h, time 7 day
[33] = Oral bioavailability in BALB/c mouse at 10 mg/kg administration measured upto 24 hrs by LC-MS/MS analysis; type: ADME, organism-based; conditions: in vivo, po, 10 mg/kg, 24 h
Enterococcus = assay: Antibacterial activity against vancomycin resistant Enterococcus clinical isolate 20-1 assessed as inhibition of bacterial growth incubated for 7 days by alamar blue assay; type: functional; conditions: clinical isolate 20-1, 168 h, time 7 day
Enterococcus faecalis [34] = assay: Antibacterial activity against Linezolid resistant Enterococcus faecalis clinical isolate 20-1 assessed as inhibition of bacterial growth incubated for 7 days by alamar blue assay; type: functional; conditions: clinical isolate 20-1, 168 h, time 7 day
[35] = Cmax in BALB/c mouse at 1 mg/kg,iv administration measured upto 24 hrs by LC-MS/MS analysis; type: ADME, organism-based; conditions: in vivo
[36] = system: Mycobacterium tuberculosis; assay: Antibacterial activity against Mycobacterium tuberculosis H37Rv assessed as inhibition of bacterial growth incubated for 7 days by alamar blue assay; type: functional; conditions: 168 h, time 7 day
Staphylococcus aureus [37] = assay: Antibacterial activity against methicillin resistant Staphylococcus aureus clinical isolate 20-1 assessed as inhibition of bacterial growth incubated for 7 days by alamar blue assay; type: functional; conditions: clinical isolate 20-1, 168 h, time 7 day
[38] = Drug concentration in BALB/c mouse plasma at 10 mg/kg,po administration measured after 24 hrs by LC-MS/MS analysis; type: ADME, organism-based; conditions: in vivo

With `COC(=O)NC[C@@H]1OC(=O)N2Cc3cc(-c4ccc(C#N)cc4)c(F)cc3O[C@@H]12` as the molecule, how does the AUC [1] read?
The AUC was 188361 ng·h/mL.

What about the Tmax [2] of the same molecule?
Its Tmax is 4 h.

What about the fraction unbound at 24 h [3] of the same molecule?
Its fraction unbound at 24 h is 0.174.

What about the remaining at 1 h, 10 µM [4] of the same molecule?
The remaining at 1 h, 10 µM was 108%.

What about the MRT inf [5] of the same molecule?
Its MRT inf is 8.4 h.

What about the IC50 at 48 h [6] of the same molecule?
The IC50 at 48 h was > 64 µg/mL.

What about the clearance [7] of the same molecule?
The clearance was 2.42 mL/min/kg.

And the MIC (Staphylococcus aureus [8])?
Its MIC is 2 µg/mL (≈ 5.03 µM).

What about the AUC(0-t) at 24 h [9] of the same molecule?
Its AUC(0-t) at 24 h is 54300 ng·h/mL.

What about the remaining at 1 h, 10 µM [10] of the same molecule?
Its remaining at 1 h, 10 µM is 113%.

And the MIC [11]?
Its MIC is 0.032 µg/mL (≈ 0.0805 µM).

And the AUC [12]?
Its AUC is 6893 ng·h/mL.

What about the MRT inf [13] of the same molecule?
Its MRT inf is 70.9 h.

What about the remaining at 1 h, 10 µM [14] of the same molecule?
Its remaining at 1 h, 10 µM is 112%.

What about the concentration at 0.25 h [15] of the same molecule?
The concentration at 0.25 h was 1000 ng/mL.

And the MIC (Staphylococcus aureus [16])?
Its MIC is 0.5 µg/mL (≈ 1.26 µM).

And the Vd [17]?
The Vd was 0.818 L/kg.

What about the MIC (Enterococcus faecalis [18]) of the same molecule?
The MIC was 2 µg/mL (≈ 5.03 µM).

And the MIC (Staphylococcus aureus [19])?
Its MIC is 8 µg/mL (≈ 20.1 µM).

And the MIC (Staphylococcus aureus [20])?
Its MIC is 0.5 µg/mL (≈ 1.26 µM).

And the MRT last at 24 h [21]?
Its MRT last at 24 h is 8.1 h.

What about the MIC (Bacillus subtilis) of the same molecule?
The MIC was 0.063 µg/mL (≈ 0.159 µM).

What about the MIC (Enterococcus faecalis [22]) of the same molecule?
Its MIC is 0.25 µg/mL (≈ 0.629 µM).

And the MIC [23]?
The MIC was 0.125 µg/mL (≈ 0.315 µM).

What about the fAUC [24] of the same molecule?
The fAUC was 9450 ng·h/mL.

What about the half-life [25] of the same molecule?
Its half-life is 3.9 h.

What about the AUC(0-t) at 24 h [26] of the same molecule?
Its AUC(0-t) at 24 h is 6810 ng·h/mL.

What about the half-life [27] of the same molecule?
The half-life was 49.3 h.

And the MRT last at 24 h [28]?
The MRT last at 24 h was 11.3 h.

And the MIC (Staphylococcus aureus [29])?
The MIC was 8 µg/mL (≈ 20.1 µM).

And the remaining at 1 h, 10 µM [30]?
The remaining at 1 h, 10 µM was 114%.

And the Cmax [31]?
Its Cmax is 2790 ng/mL.

What about the MIC [32] of the same molecule?
Its MIC is 0.125 µg/mL (≈ 0.315 µM).

And the F [33]?
The F was 79.8%.

What about the MIC (Enterococcus) of the same molecule?
Its MIC is 0.5 µg/mL (≈ 1.26 µM).

And the MIC (Enterococcus faecalis [34])?
The MIC was 2 µg/mL (≈ 5.03 µM).

And the Cmax [35]?
The Cmax was 514 ng/mL.

And the MIC [36]?
The MIC was 0.73 µg/mL (≈ 1.84 µM).

And the MIC (Staphylococcus aureus [37])?
The MIC was 0.5 µg/mL (≈ 1.26 µM).

And the Drug uptake [38]?
The Drug uptake was > 60%.
